The text below walks through data of patent US20240150370A1, “BICYCLIC PYRIDINE DERIVATIVE” (Sumitomo Pharma Co., Ltd., priority 0001, published 2024).

What is called IC50 is the concentration that gives 50% inhibition.

Counter-ions that a name gives are not always drawn.

One series addresses human TAAR1 receptor (Homo sapiens (Human), UniProt Q96RJ0). Briefly: Evaluation of agonist activity on human TAAR1 receptor (cAMP assay). Format: cell-based. The note with it: CHO, 0.5 h, cAMP in human TAAR1-expressing CHO cells, relative to 100 μM tyramine, read-out: TAAR1 agonist activity at each concentration (%); for activation at 0.1 µM: 100 nM; for activation at 1 µM: 1000 nM; for activation at 10 µM: 10000 nM. (Changes in cAMP serve as a functional read-out for many G protein-coupled receptors.)

The target of the next series is hERG channel (Homo sapiens (Human), UniProt Q12809). Kind of series: Evaluation of hERG channel inhibitory activity (whole-cell patch clamp, hERG-CHO cells). The format is cell-based. The note with it: autopatch clamp, read-out: hERG inhibition IC50.
Sequence of hERG channel (Q12809 whole entry): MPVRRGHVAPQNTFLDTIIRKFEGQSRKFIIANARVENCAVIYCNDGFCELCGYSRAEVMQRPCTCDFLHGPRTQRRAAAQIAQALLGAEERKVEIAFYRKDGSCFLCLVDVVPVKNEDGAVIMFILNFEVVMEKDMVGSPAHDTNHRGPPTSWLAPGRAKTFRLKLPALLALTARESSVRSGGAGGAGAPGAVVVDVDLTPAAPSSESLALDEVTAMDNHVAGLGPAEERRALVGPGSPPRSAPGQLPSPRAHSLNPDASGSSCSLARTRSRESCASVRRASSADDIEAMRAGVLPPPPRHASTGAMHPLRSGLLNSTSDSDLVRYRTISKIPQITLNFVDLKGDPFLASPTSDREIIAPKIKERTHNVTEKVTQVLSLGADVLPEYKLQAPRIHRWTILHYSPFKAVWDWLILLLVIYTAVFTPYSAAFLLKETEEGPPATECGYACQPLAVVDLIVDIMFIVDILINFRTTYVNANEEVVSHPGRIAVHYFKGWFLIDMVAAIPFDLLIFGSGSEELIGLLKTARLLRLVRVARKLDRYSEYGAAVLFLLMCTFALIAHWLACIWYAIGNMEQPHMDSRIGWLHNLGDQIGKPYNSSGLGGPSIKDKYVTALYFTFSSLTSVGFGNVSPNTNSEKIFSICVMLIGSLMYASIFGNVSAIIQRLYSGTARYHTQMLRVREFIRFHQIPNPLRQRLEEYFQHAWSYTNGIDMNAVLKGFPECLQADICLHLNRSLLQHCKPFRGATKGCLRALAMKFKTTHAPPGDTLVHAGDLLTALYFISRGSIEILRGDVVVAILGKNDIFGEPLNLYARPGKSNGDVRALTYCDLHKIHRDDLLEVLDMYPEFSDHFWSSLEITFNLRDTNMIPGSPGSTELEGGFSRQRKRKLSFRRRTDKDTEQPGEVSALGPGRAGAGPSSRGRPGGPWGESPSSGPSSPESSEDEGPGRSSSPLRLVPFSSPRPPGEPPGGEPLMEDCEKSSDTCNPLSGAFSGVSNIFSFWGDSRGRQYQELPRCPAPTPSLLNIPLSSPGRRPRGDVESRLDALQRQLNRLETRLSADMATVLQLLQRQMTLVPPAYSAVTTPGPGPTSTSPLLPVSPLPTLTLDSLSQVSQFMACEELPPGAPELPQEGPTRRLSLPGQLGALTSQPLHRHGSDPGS

Sequence of human TAAR1 receptor (Q96RJ0 whole entry, the tested form may be a part): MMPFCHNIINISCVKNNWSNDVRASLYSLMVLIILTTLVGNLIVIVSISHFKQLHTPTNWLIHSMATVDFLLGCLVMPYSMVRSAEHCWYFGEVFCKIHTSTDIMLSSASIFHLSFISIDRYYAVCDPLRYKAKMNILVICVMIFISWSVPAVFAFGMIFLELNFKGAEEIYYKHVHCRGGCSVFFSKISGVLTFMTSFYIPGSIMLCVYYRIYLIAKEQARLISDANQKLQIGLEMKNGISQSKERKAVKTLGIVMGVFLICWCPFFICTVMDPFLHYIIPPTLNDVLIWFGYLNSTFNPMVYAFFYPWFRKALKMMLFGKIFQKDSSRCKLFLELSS

Regarding `NC[C@@H]1CCSc2cccnc21` (single isomer, unassigned) [Example 40, dihydrochloride], at human TAAR1 receptor, the activation at 0.1 µM stood at 25%, the activation at 1 µM is 57% and the activation at 10 µM turned out to be 68%. The half-maximal inhibitory concentration (IC50) on hERG channel is more than 100 µM.

For the compound `NCC1c2ncccc2OC12CC2` (centres unmarked) [Example 58], on human TAAR1 receptor, the activation at 0.1 µM is 36%, the activation at 1 µM was determined as 74% and the activation at 10 µM stood at 82%. The IC50 on hERG channel was more than 100 µM.

On to `Cc1ccc2c(n1)[C@H](CN)[C@@H](C)O2` [Example 35, 1-[(2R,3S)-2,5-dimethyl-2,3-dihydrofuro[3,2-b]pyridin-3-yl]methanamine], for which, at human TAAR1 receptor, the activation at 0.1 µM was found to be 57%, the activation at 1 µM is 82% and the activation at 10 µM was determined as 87%. Besides, at hERG channel, the half-inhibitory concentration (IC50) was more than 100 µM.

With `CNC[C@H]1c2ncc(Cl)cc2O[C@@H]1C` [Example 50], at human TAAR1 receptor, the activation at 0.1 µM stood at 12%, the activation at 1 µM amounted to 45% and the activation at 10 µM stood at 63%. The IC50 on hERG channel is more than 100 µM.

Consider `NC[C@@H]1CSc2cccnc21` (single isomer, unassigned) [Example 42, dihydrochloride], for which, on human TAAR1 receptor, the activation at 0.1 µM is 25%, the activation at 1 µM was 70% and the activation at 10 µM turned out to be 90%. At hERG channel, the 50% inhibitory concentration (IC50) was more than 100 µM.

Turning to `C[C@@H]1COc2cccnc2[C@@H]1CN` (stereo in doubt) [Example 2, rac-1-[(3S,4S)-3-methyl-3,4-dihydro-2H-pyrano[3,2-b]pyridin-4-yl]methanamine dihydrochloride], on human TAAR1 receptor, the activation at 0.1 µM is 7%, the activation at 1 µM was found to be 37% and the activation at 10 µM worked out at 75%. Moreover, on hERG channel, the IC50 was more than 100 µM.

For the compound `Cc1ccc2c(n1)C(CN)CS2` (centres unmarked) [Example 11], at human TAAR1 receptor, the activation at 0.1 µM stood at 20%, the activation at 1 µM was determined as 58% and the activation at 10 µM was determined as 79%. Also, the IC50 at hERG channel was more than 100 µM.

As for `CNCC1CCSc2cccnc21` (racemic) [Example 45, rac-1-(3,4-dihydro-2H-thiopyrano[3,2-b]pyridin-4-yl)-N-methylmethanamine dihydrochloride], at human TAAR1 receptor, the activation at 0.1 µM was 13%, the activation at 1 µM is 51% and the activation at 10 µM is 77%. In addition, the IC50 on hERG channel is more than 100 µM.

In the case of `Cc1ccnc2c1O[C@H](C)[C@H]2CN` [Example 34, 1-[(2R,3S)-2,7-dimethyl-2,3-dihydrofuro[3,2-b]pyridin-3-yl]methanamine dihydrochloride], on human TAAR1 receptor, the activation at 0.1 µM stood at 10%, the activation at 1 µM is 48% and the activation at 10 µM was determined as 83%. Moreover, the IC50 at hERG channel was more than 100 µM.

As to `C[C@H]1Oc2cc(F)cnc2[C@@H]1CN` [Example 8, 1-[(2R,3S)-6-fluoro-2-methyl-2,3-dihydrofuro[3,2-b]pyridin-3-yl]methanamine dihydrochloride], at human TAAR1 receptor, the activation at 0.1 µM worked out at 24%, the activation at 1 µM is 63% and the activation at 10 µM was 75%. Besides, at hERG channel, the IC50 was more than 100 µM.

As to `NCC1CCSc2cccnc21` (centres unmarked) [Example 9], at human TAAR1 receptor, the activation at 0.1 µM worked out at 15%, the activation at 1 µM was 53% and the activation at 10 µM stood at 70%. In addition, the IC50 on hERG channel was more than 100 µM.

On to `CC[C@H]1Oc2cccnc2[C@@H]1CN` (stereo in doubt) [Example 22], for which, at human TAAR1 receptor, the activation at 0.1 µM is 11%, the activation at 1 µM was 56% and the activation at 10 µM was 84%. Also, the IC50 at hERG channel is more than 100 µM.

For the compound `CC[C@@H]1Oc2cccnc2[C@H]1CN` (stereo in doubt) [Example 44, rel-1-[(2S,3R)-2-ethyl-2,3-dihydrofuro[3,2-b]pyridin-3-yl]methanamine dihydrochloride], on human TAAR1 receptor, the activation at 0.1 µM amounted to 13%, the activation at 1 µM worked out at 48% and the activation at 10 µM was 79%. For the same compound, the IC50 on hERG channel was more than 100 µM.

Consider `CNC[C@H]1c2ncccc2O[C@@H]1C` [Example 46, N-methyl-1-[(2R,3S)-2-methyl-2,3-dihydrofuro[3,2-b]pyridin-3-yl]methanamine dihydrochloride], for which, on human TAAR1 receptor, the activation at 0.1 µM turned out to be 31%, the activation at 1 µM was determined as 70% and the activation at 10 µM was determined as 80%. The IC50 on hERG channel is more than 100 µM.

`CNC[C@H]1c2nccc(C)c2O[C@@H]1C` [Example 51]: at human TAAR1 receptor, the activation at 0.1 µM was 10%, the activation at 1 µM was 46% and the activation at 10 µM came to 77%. The IC50 at hERG channel is more than 100 µM.

For `Cc1ccc2c(n1)C(CN)C1(CC1)O2` (racemic) [Example 90, rac-1-(5′-methyl-3′H-spiro[cyclopropane-1,2′-furo[3,2-b]pyridine]-3′-yl)methanamine dihydrochloride], at human TAAR1 receptor, the activation at 0.1 µM came to 54%, the activation at 1 µM is 85% and the activation at 10 µM was 94%. Also, the concentration for half-maximal inhibition (IC50) at hERG channel amounted to 71.8 µM.

For `CNC[C@@H]1C[C@H](C)Oc2cccnc21` [Example 6], on human TAAR1 receptor, the activation at 0.1 µM turned out to be 16%, the activation at 1 µM stood at 57% and the activation at 10 µM is 75%. Besides, the IC50 at hERG channel is more than 100 µM.

As for `C[C@@H]1C[C@@H](CN)c2ncccc2S1` (racemic) [Example 14], at human TAAR1 receptor, the activation at 0.1 µM is 10%, the activation at 1 µM came to 47% and the activation at 10 µM amounted to 74%. Besides, the IC50 on hERG channel is more than 100 µM.

With `NC[C@H]1C[C@@H](c2ccccc2)Oc2cccnc21` (racemic) [Example 24], at human TAAR1 receptor, the activation at 0.1 µM turned out to be 25%, the activation at 1 µM worked out at 71% and the activation at 10 µM worked out at 101%. Further, the IC50 on hERG channel is 6.9 µM.

For the compound `Cc1ccc2c(n1)C(CN)CCS2` (centres unmarked) [Example 12], at human TAAR1 receptor, the activation at 0.1 µM was found to be 21%, the activation at 1 µM was found to be 58% and the activation at 10 µM was 75%. Also, the IC50 at hERG channel was more than 100 µM.

Take `COc1ccc2c(n1)C(CN)CCC2` (racemic) [Example 88, rac-1-(2-methoxy-5,6,7,8-tetrahydroquinolin-8-yl)methanamine dihydrochloride]: at human TAAR1 receptor, the activation at 0.1 µM was determined as 11%, the activation at 1 µM was determined as 38% and the activation at 10 µM worked out at 65%. In addition, the 50% inhibitory concentration (IC50) at hERG channel was more than 100 µM.

With `CNCC1c2nc(C)ccc2OC1(C)C` (centres unmarked) [Example 79], on human TAAR1 receptor, the activation at 0.1 µM turned out to be 36%, the activation at 1 µM turned out to be 77% and the activation at 10 µM was 90%. Besides, the IC50 at hERG channel is more than 100 µM.

Regarding `C[C@H]1Sc2cccnc2[C@@H]1CN` (racemic) [Example 15], on human TAAR1 receptor, the activation at 0.1 µM is 24%, the activation at 1 µM was found to be 67% and the activation at 10 µM was 90%. Moreover, the IC50 at hERG channel was more than 100 µM.
